# From US20190070174A1, “METHODS OF TREATING NEURODEGENERATIVE DISEASES” (priority 2016, published 2019)
# Tests used:
# insoluble ATXN3 = experiment: Subchronic treatment of Q84 mice, filter trap analysis of insoluble fractions; format: in vivo, human; conditions: brainstem insoluble fractions
# Method: (§1) YACMJD84.2 transgenic mice were housed in cages with a maximum number of five animals and maintained in a standard 12-hour light/dark cycle with food and water ad libitum. Genotyping was performed using DNA isolated from tail biopsy at the time of weaning, and genotypes of all studied mice were confirmed using DNA extracted from tails collected post-mortem. […] Five hours after the final injection, mice were anesthetized with ketamine/xylazine and perfused transcardially with phosphate buffered saline (PBS) (for RNA and protein studies), and brains were immediately placed on dry ice and stored at −80° C.
# Protein lysates from cell cultures, mouse brain slices or mouse brains were obtained by lysis in RIPA buffer containing protease inhibitors (Complete, Roche Diagnostics), followed by sonication and centrifugation. The supernatants (soluble protein fractions) were collected, total protein concentration was determined using the BCA method (Pierce) and then stored at −80° C. […] Pellets corresponding to insoluble protein fractions were resuspended in 100 μL of Laemmli buffer 2× and boiled for 10 min. Insoluble proteins were then quantified, and 100 μg were loaded in a filter trap assay apparatus and transferred to a nitrocellulose membrane (0.45 μm pore) that was incubated overnight with rabbit anti-MJD antibody (1:5000) at 4° C. […] Band intensity was quantified by densitometry using ImageJ.
# 5HT2A transcripts = experiment: Subchronic treatment of Q84 mice, quantitative RT-PCR; format: in vivo, mouse; conditions: brainstem of Q84 mice
# Method: as §1
# Reverse transcription of 1.5 μg of total RNA per sample was performed using the iScript cDNA synthesis kit (Bio-RAD). Human ATXN3 and mouse Atxn3, Drd2, 5HT1A, 5HT2A and Gapdh (housekeeping) transcript levels were accessed by quantitative real-time PCR. Relative gene expression was determined using the ΔΔCT method, normalizing for Gapdh mRNA levels.
# [1] = mouse, in vivo; cited from earlier work
# Hsf1 = experiment: Subchronic treatment of Q84 mice, Western blot of brainstem soluble fractions; format: in vivo, mouse
# Method: as §1
# (§2) Protein lysates from cell cultures, mouse brain slices or mouse brains were obtained by lysis in RIPA buffer containing protease inhibitors (Complete, Roche Diagnostics), followed by sonication and centrifugation. The supernatants (soluble protein fractions) were collected, total protein concentration was determined using the BCA method (Pierce) and then stored at −80° C. […] Pellets corresponding to insoluble protein fractions were resuspended in 100 μL of Laemmli buffer 2× and boiled for 10 min. Insoluble proteins were then quantified, and 100 μg were loaded in a filter trap assay apparatus and transferred to a nitrocellulose membrane (0.45 μm pore) that was incubated overnight with rabbit anti-MJD antibody (1:5000) at 4° C. Bound primary antibodies were visualized by incubation with a peroxidase-conjugated anti-mouse or anti-rabbit secondary antibody (1:10000; Jackson Immuno Research Laboratories) followed by treatment with the ECL-plus reagent (Western Lighting, PerkinElmer) and exposure to autoradiography films. Band intensity was quantified by densitometry using ImageJ.
# Hsp70 = experiment: as above; format: in vivo, mouse
# Method: as §1, §2
# Hsp90a = experiment: as above; format: in vivo, mouse
# Method: as §1, §2
# Hsp90β = experiment: as above; format: in vivo, mouse
# Method: as §1, §2
# Rad23a = experiment: as above; format: in vivo, mouse; conditions: Q84 mice vs vehicle
# Method: as §1, §2
# Rad23b = experiment: as above; format: in vivo, mouse; conditions: Q84 mice vs vehicle
# Method: as §1, §2
# Hsp40 = experiment: as above; format: in vivo, mouse
# Method: as §1, §2
# [2] = test system: ATXN3Q81.Luc fusion protein; experiment: Confirmation dose-response, ATXN3 levels by immunoblotting; format: cell-based, human; conditions: 293.ATXN3Q81Luc cells
# Excerpt: Full-length ATXN3 (Accession number ABS29269) carrying either a normal or an expanded polyQ tract (Q26 or Q81) was subcloned in the vector pcDNA3.1 FLAG.firefly Luciferase. The mammalian expression plasmids pcDNA.FLAG.ATXN3Q26.Luc and pcDNA.FLAG.ATXN3Q81.Luc were confirmed by sequencing and shown to express N-terminal FLAG-tagged ATXN3Q26 or ATXN3Q81 fused with firefly Luciferase (Luc), respectively. These neomycin-resistant plasmids were transfected into HEK293 cells using Lipofectamine LTX (Invitrogen) during four hours, after which medium was replaced by growth medium (DMEM/10% fetal bovine serum (FBS)/1% penicillin/streptomycin (PS)). […] After one month of passage in selection medium, stably transfected clones for each cell line (293.ATXN3Q26Luc and 293.ATXN3Q81Luc) were pooled and frozen in liquid nitrogen. Stably transfected cell lines were maintained in selection medium except during treatment with specific compounds that were diluted in growth medium.
# Protein lysates from cell cultures, mouse brain slices or mouse brains were obtained by lysis in RIPA buffer containing protease inhibitors (Complete, Roche Diagnostics), followed by sonication and centrifugation. The supernatants (soluble protein fractions) were collected, total protein concentration was determined using the BCA method (Pierce) and then stored at −80° C. Total proteins (50 μg from cell and slice cultures or 75 μg from brain regions of mice) were resolved in 10% SDS-PAGE gels, and corresponding PVDF membranes were incubated overnight at 4° C. with primary antibodies: mouse anti-ATXN3 (1H9) (1:2000; MAB5360, Millipore), goat anti-Luciferase (1:500; G7451, Promega), mouse anti-FLAG (M5) (1:500; IB13091, Sigma), rabbit anti-LC3 (1:500; PM036, MBL International Corporation), mouse anti-HSP90β (1:1000; ADI-SPA842, Enzo Life Sciences), rabbit anti-HSP90α (1:1000; ab2928, Abcam), mouse anti-HSP70 (1:500; SPA810, Enzo Life Sciences), rabbit anti-HSP40 (1:1000; #4868, Cell Signaling), rabbit anti-HSP25 (1:1000; ADI-SPA801, Enzo Life Sciences), rabbit anti-HSF1 (1:1000, ADI-SPA-901, Enzo Life Sciences), rabbit anti-ubiquitin (1:1000, Z 0458, Dako), rabbit anti-RAD23A (1:5000; TA307264, Origene), rabbit anti-RAD23B (1:2000; A302-306A, Bethyl Labs), rabbit anti-α-Tubulin (11H10) (1:10000; #2125, Cell Signaling), and mouse anti-GAPDH (1:1000; MAB374, Millipore). Pellets corresponding to insoluble protein fractions were resuspended in 100 μL of Laemmli buffer 2× and boiled for 10 min. Insoluble proteins were then quantified, and 100 μg were loaded in a filter trap assay apparatus and transferred to a nitrocellulose membrane (0.45 μm pore) that was incubated overnight with rabbit anti-MJD antibody (1:5000) at 4° C. Bound primary antibodies were visualized by incubation with a peroxidase-conjugated anti-mouse or anti-rabbit secondary antibody (1:10000; Jackson Immuno Research Laboratories) followed by treatment with the ECL-plus reagent (Western Lighting, PerkinElmer) and exposure to autoradiography films. Band intensity was quantified by densitometry using ImageJ.
# ATXN3Q55 = experiment: Native PAGE analysis at the end of the ThT assay; format: biochemical, human
structure (smiles),measurement,setting,value
O=C1CCc2ccc(OCCCCN3CCN(c4cccc(Cl)c4Cl)CC3)cc2N1 [aripiprazole],insoluble ATXN3 vs vehicle,insoluble ATXN3,no differences
same,5HT2A transcripts,5HT2A transcripts,increasing
same,maximum tolerable dose,[1],15 mg/kg
same,Heat shock transcription factor (Hsf1) level,Hsf1,increased
same,levels of Hsp70 compared with vehicle-treated mice,Hsp70,62%
same,levels of Hsp90a compared with vehicle-treated mice,Hsp90a,79%
same,levels of Hsp90β compared with vehicle-treated mice,Hsp90β,22%
same,levels of Rad23a,Rad23a,trend toward decreased levels
same,levels of Rad23b,Rad23b,trend toward decreased levels
same,levels of Hsp40,Hsp40,No differences
same,levels of ATXN3Q81.Luc fusion protein,[2],confirmed to decrease levels of ATXN3Q81.Luc fusion protein
same,HMW or other species of ATXN3Q55,ATXN3Q55,no differences
